Measurements from PubChem BioAssay AID686961 (Sanford-Burnham Center for Chemical Genomics, 2013).
Activity calls are given as the source filed them.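 Rule for the calls: active = IC50 at or below 20 µM; inactive = the rest.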

Each compound was assayed against Dual specificity protein phosphatase 3 (Homo sapiens) (UniProt P51452) (assay: human DUSP3 enzyme inhibition – biochemical, fluorescence, OMFP substrate, selectivity assay for LMPTP inhibitor project, dose response (AID 686961)). Conditions: recombinant VHR-1 enzyme, OMFP fluorogenic substrate, 50 min.
Sequence of Dual specificity protein phosphatase 3 (Homo sapiens) (P51452 whole entry, looked up): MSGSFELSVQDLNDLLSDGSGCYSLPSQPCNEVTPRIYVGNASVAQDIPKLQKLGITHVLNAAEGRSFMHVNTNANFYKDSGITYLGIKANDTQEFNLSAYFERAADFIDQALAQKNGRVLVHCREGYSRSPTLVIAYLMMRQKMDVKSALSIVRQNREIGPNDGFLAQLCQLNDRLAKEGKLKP

SMILES | IC50
c1ccc(-c2nc(NCCCN3CCOCC3)c3ccccc3n2)cc1 | > 80 µM (inactive)
CN(C)c1nc(N)nc(/C(C#N)=C/C2CC3C=CC2C3)n1 (stereo unspecified) | > 80 µM (inactive)
NS(=O)(=O)c1ccc(CNC(=O)Cc2cccs2)cc1 | 1.4 µM
CC(Nc1nc(N2CCNCC2)nc2ccccc12)c1ccccc1 (stereo unspecified) | 1.38 µM
CCOC(=O)C1=C(C)N=c2sc(=Cc3ccc(OCC(=O)O)cc3)c(=O)n2C1c1ccc(Cl)cc1 (stereo unspecified) | 2.63 µM
Cc1[nH]ccc2cc3nc4ccccc4c3cc12 | 17.6 µM
Cc1cccc(-c2nc(NCCCN3CCOCC3)c3ccccc3n2)c1 | > 80 µM (inactive)
Cc1c(CCC(=O)O)c(=O)oc2c(C)c(OCc3ccccc3Cl)ccc12 | inactive
COc1cccc(N2CCN(C(=O)c3ccc(CSc4nc5ccncc5[nH]4)cc3)CC2)c1 | 12.4 µM
O=c1cc(-c2cc3ccccc3o2)c2cc(O)ccc2o1 | 5.57 µM
CCCCC(=O)Nc1ccc(C(=O)NNC(=O)c2ccc(C)c(Br)c2)cc1 | 3.82 µM
O=C(N/N=C\C=C\c1ccc(Br)cc1)c1ccc2c(c1)OCO2 | 1.63 µM
CC(C)Oc1ccc(-c2nc(NCC3CCCO3)c3ccccc3n2)cc1 (stereo unspecified) | inactive
CC1C(=O)N(Cc2cn(Cc3ccco3)nn2)CCS(=O)(=O)N1Cc1ccc(-c2cccnc2)cc1 (stereo unspecified) | 0.91 µM
O=C(COc1ccc(/C=N/NC(=O)c2ccc(O)cc2)cc1)Nc1cccc([N+](=O)[O-])c1 | 5.71 µM
COc1cccc(CNc2nc(NCC3CC3)nc3ccsc23)c1OC | 14.3 µM
Nc1nc(N)c(Cc2ccc(Cl)cc2Cl)c(N)n1 | inactive
O=C(/C=C/c1ccc(Br)cc1)NC(=O)c1ccccc1O | 10.5 µM
O=C(OCCNc1nc(-c2ccccc2)nc2ccccc12)c1ccncc1 | > 80 µM (inactive)
c1ccc(-c2cc(N3CCCCC3)c3ccccc3n2)cc1 | > 80 µM (inactive)
COc1ccccc1CNc1nc(NCc2cnc(C)cn2)c2sccc2n1 | inactive
CC(C)OCCCNc1nc(-c2ccccc2)nc2ccccc12 | inactive
CNc1nc(NC)c2cn[nH]c2n1 | > 80 µM (inactive)

SMILES | IC50
CCc1nc(N)nc(N)c1-c1ccc(NCCN)c([N+](=O)[O-])c1 | 10.8 µM
O=C(/C=C/c1ccccc1Cl)Nc1ccc2c(c1)C(=O)NC2=O | 2.29 µM
COc1ccc(Nc2nc(NCc3cccs3)nc3ccsc23)cc1OC | 12.4 µM
O=C(CCCOc1ccc(Cl)cc1Cl)NNC(=O)c1ccc(NC(=O)c2ccccc2)cc1 | 0.7 µM
Cc1c(CCC(=O)O)c(=O)oc2c(C)c3occ(-c4ccc(Cl)cc4)c3cc12 | 5.41 µM
COCCNc1nc(NCc2cccc(OC)c2OC)c2sccc2n1 | inactive
O=C(NNC(=O)c1cc2cc3ccccc3nc2s1)c1cccc(Cl)c1 | 2.01 µM
COc1ccccc1CNc1nc(NCc2ccc(NC(C)=O)cc2)c2sccc2n1 | 5.64 µM
CCOc1cc(/C=N/N=C2/NC(=O)C(CC(=O)O)S2)ccc1OCc1ccc(Cl)cc1Cl (stereo unspecified) | 3.31 µM
O=C(Nc1ccc2oc(-c3ccccc3F)nc2c1)c1ccc([N+](=O)[O-])o1 | 1.59 µM
O=C(N/N=C/c1ccc(OC(=O)c2cccs2)cc1)c1cccc(F)c1 | 5.57 µM
Cc1cc(N2CCN(S(=O)(=O)c3ccc(Cl)c(Cl)c3)CC2)c2ccccc2n1 | inactive
CN1/C(=C/C=C/c2n(C)c3cc([N+](=O)[O-])c([N+](=O)[O-])cc3[n+]2C)C(C)(C)c2ccccc21 | inactive
c1ccc(-c2nc(NCCCn3ccnc3)c3ccccc3n2)cc1 | > 80 µM (inactive)
Cc1ccc(-c2nc(NCCN3CCOCC3)c3ccccc3n2)cc1 | > 80 µM (inactive)
Cc1ccc(-c2nc(NC(=O)CSc3cc(C)c4ccccc4n3)ns2)cc1 | 1.27 µM
Cc1ccccc1Nc1cc(C)c2c(O)cccc2n1 | > 80 µM (inactive)
N=c1c(C(=O)NCc2ccc3c(c2)OCO3)cc2c(=O)n3ccccc3nc2n1Cc1cccnc1 | 12.4 µM
CCc1nc(N)nc(N)c1-c1ccc(Cl)c(N=[N+]=[N-])c1 | inactive
Cc1cc(N2CCC(C)CC2)nc2cccc(O)c12 | 19.5 µM
O=C1C(=Cc2cn(-c3ccccc3)nc2-c2ccc(OCc3ccccc3)cc2)SC(=S)N1CCS(=O)(=O)O | 0.55 µM
COc1ccc(Nc2nc(=O)c3cc([N+](=O)[O-])ccc3s2)cc1 | 3.92 µM
C/C(=N\NC(=O)c1ccc(OC2OCCOC2Oc2ccc(C(=O)N/N=C(\C)c3ccncc3)cc2)cc1)c1ccncc1 (stereo unspecified) | 6.01 µM

The remaining lines, values ahead:

IC50 | SMILES
2.9 µM | Cc1cc2oc(=O)cc(-c3cc4ccccc4o3)c2cc1O
11.1 µM | O=C(N/N=C/c1cccc(Br)c1)c1ccc(Br)cc1
1.49 µM | NC(=O)Cc1ccc(C(=O)CSc2nnc(-c3ccncc3)n2C2CC2)s1
> 80 µM (inactive) | Cc1nc(N)nc(N)c1-c1ccc([N+](=O)[O-])cc1
9.27 µM | CC(=O)Nc1ccc(CNc2nc(NCc3cccs3)nc3ccsc23)cc1
0.4 µM | CCOC(=O)Cn1c(=NC(=O)c2sc3ccccc3c2Cl)sc2cc(S(N)(=O)=O)ccc21
2.41 µM | COc1cccc2c1[C@@H]1CN(CCCCn3c(=O)[nH]c4c(sc5ncc(-c6ccccc6)nc54)c3=O)C[C@@H]1CO2
12.5 µM | c1ccc(-c2cc(NCCN3CCCCC3)c3ccccc3n2)cc1
12.1 µM | CC(=O)Nc1ccc(S(=O)(=O)N2CCN(c3nc(NC4CCCC4)c4ccccc4n3)CC2)cc1
> 80 µM (inactive) | CCc1nc(N)nc(N)c1-c1ccc(Cl)cc1
inactive | Clc1cccc(Cl)c1Cn1cnc(=NCc2ccco2)c2[nH]cnc21
inactive | Fc1ccccc1-c1nc(NC2CCCC2)c2ccccc2n1
1.97 µM | O=C(N/N=C/c1ccc(Br)s1)c1cccc([N+](=O)[O-])c1
5.89 µM | CCOC(=O)c1cc(-c2ccc(N3CCOCC3)cc2)nn1-c1ccccc1C(=O)O
> 80 µM (inactive) | c1ccc(-c2nc(NCc3cccnc3)c3ccccc3n2)cc1
> 80 µM (inactive) | Cc1[nH]ccc(=O)c1Cc1c(Cl)cccc1Cl
> 80 µM (inactive) | Cc1cccc2nc(-c3ccccc3)nc(N[C@@H](CO)c3ccccc3)c12
inactive | Cc1ccc(-c2nc(NCc3cccnc3)c3ccccc3n2)cc1
1.83 µM | CCOC(=O)C1=C(C)N=c2sc(=Cc3ccc(OCC(=O)O)cc3)c(=O)n2C1c1ccc(SC)cc1 (stereo unspecified)
> 80 µM (inactive) | Fc1ccccc1-c1nc(NCCCN2CCOCC2)c2ccccc2n1
> 80 µM (inactive) | O=C(OCCNc1nc(-c2ccccc2)nc2ccccc12)c1cccnc1
13 µM | O=C(CCN1C(=O)/C(=C/c2ccc3c(c2)OCO3)SC1=S)Nc1ccc(C(=O)O)cc1
9.62 µM | COc1ccc(-c2ccc(/C=N/NC(=O)c3cccnc3)o2)c([N+](=O)[O-])c1
inactive | NS(=O)(=O)c1ccc(CCNC(=O)c2ccc3nccnc3c2)cc1
2.05 µM | CCN(c1ccccc1)S(=O)(=O)c1cc(C(=O)O)ccc1C
